According to patent US7973024B2, “24-sulfoximine vitamin D3 compounds” (Cyctochroma Inc., priority 2002, dated 2011):

Assays:
SCC-25 cells = test: [3H]-thymidine proliferation assay with SCC-25 cells; assay type: cell-based; conditions: together with calcitriol, three days, [3H]-thymidine 6 h
Protocol: 1. Preparation of Cell Suspension • When SCC-25 cells were 70-80% confluent, aspirated media. Washed the cells with 1×PBS. Trypsinized with trypsin-EDTA from the plate, collected cells from the tissue culture flask, centrifuged (500×g, 5 min) and resuspended in media.
2. Cell Plating. • Counted the cells and adjusted the cell density to 10,000/ml. Added 200 μl per well in a 96 well plate. Incubated plate for 24 h at 37° C. in a humidified atmosphere plus 5% CO2. Aspirated used media and replaced with 150 μl per well with media.
3. Compound Addition. • Added 25 μl of 1α,25(OH)2D3 (final concentration 10^−6M, 10^−7 M, 10^−8 M, M, 10^−10 M, 10^−11 M) into each designated well. Added 25 μl of substrate (final concentration 10^−7 M, 5×10^−8 M, 10^−8 M or 10^−9 M) into each designated well. Incubated plates for 3 days at 37° C. in a humidified atmosphere plus 5% CO2.
4. ^3H-Thymidine Incorporation. • Added ^3H-thymidine at 0.02 μCi per well and incubated at 37° C. in a humidified atmosphere plus 5% CO2 for 6 h.
5. Plate Harvesting. • Aspirated all media and washed cells with 1×PBS. Trypsinized cells for 30 min at 37° C. in a humidified atmosphere plus 5% CO2. Harvested cells onto a 96 well filter plate (Millipore) using a Tomtec Cell Harvestor, according to manufacturers instructions.
6. Scintillation Counting. • Added 25 μl of scintillation fluid per well. Counted the plate using a scintillation counter.

VDR = target: T1, VDR (Homo sapiens, UniProt P11473); test: VDR binding assay; conditions: B50: displacement of 50 percent [3H]-1,25(OH)2D3 from human recombinant VDR
T1 construct: purchased Biomol
T1 sequence (P11473 1-427): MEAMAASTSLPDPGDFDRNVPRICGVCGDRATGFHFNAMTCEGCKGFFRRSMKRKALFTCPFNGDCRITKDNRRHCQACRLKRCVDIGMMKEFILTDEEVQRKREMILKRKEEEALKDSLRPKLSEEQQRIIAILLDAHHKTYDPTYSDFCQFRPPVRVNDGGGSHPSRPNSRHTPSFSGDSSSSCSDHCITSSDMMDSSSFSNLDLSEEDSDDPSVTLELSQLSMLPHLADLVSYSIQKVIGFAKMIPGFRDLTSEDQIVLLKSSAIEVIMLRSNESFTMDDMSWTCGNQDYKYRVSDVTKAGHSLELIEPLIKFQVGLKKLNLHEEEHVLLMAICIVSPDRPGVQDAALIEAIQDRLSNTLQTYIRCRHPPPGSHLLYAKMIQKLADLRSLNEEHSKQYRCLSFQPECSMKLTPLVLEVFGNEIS
Protocol: 1. VDR 9.4 pmol/μl (human, recombinant, Biomol).
4. TEK300 • Tris-HCI 50 mM • EDTA 1.5 mM • KCI 300 mM Adjust pH to 7.4 (25° C.)
3. Preparation of 1.25(OH)2D3 and test compounds in ethanol
1 μl stock VDR in 2.5 ml TEDK300/Gelatin solution (500 μl/tube), (keep on ice)
• Label tubes according to the following chart, each in triplicate:
• Mixed all tubes via vortex and incubated at room temperature for 1 hour. Added 10 μL of 3H-1,25(OH)2D3 Working Dilution, mixed by vortex and incubated at room temperature for 1 hour 2. Sample processing • Thirty minutes before addition, put Charcoal/Dextran Solution on ice with continuous mixing. Added […] of Charcoal/Dextran Solution to each tube, mixed well and incubated on ice for 30 minutes. Centrifuged @ 2000 rpm for 10 minutes at 4° C. 3. Counting • Pipetted 100 μL of the upper, aqueous phase to a 24 well scintillation counting plate and added 600 μL scintillation fluid per well, covered and mixed well. Counted the plate using a scintillation counter for 5 min/sample. (iv) Calculations: • The amount of 1,25(OH)2D3 to displace 50 percent [^3H]-1,25(OH)2D3 from VDR was calculated as B50 for 1,25(OH)2D3. The VDR binding of other compounds was calculated as B50 relative to a value of 1 for 1,25(OH)2D3.

IC50 (VDR) | Compound | inhibition of proliferation of SCC-25 cells (SCC-25 cells)
> 2000 nM | C=C1/C(=C\C=C2/CCC[C@]3(C)[C@@H]([C@H](C)CCS(=O)(=NC)c4ccccc4)CC[C@@H]23)C[C@@H](O)C[C@@H]1O (single isomer, unassigned) [I(e)] | act to inhibit the proliferation
> 2000 nM | C=C1/C(=C\C=C2/CCC[C@]3(C)[C@@H]([C@H](C)CCS(=N)(=O)c4ccccc4)CC[C@@H]23)C[C@@H](O)C[C@@H]1O (single isomer, unassigned) [I(a)] | act to inhibit the proliferation
 | C=C1/C(=C\C=C2/CCC[C@]3(C)[C@@H]([C@H](C)CCS(=O)(=NC)c4ccccc4)CC[C@@H]23)C[C@@H](O)C[C@@H]1O (single isomer, unassigned) [I(g)] | act to inhibit the proliferation
> 2000 nM | C[C@H](CCS(=N)(=O)c1ccccc1)[C@H]1CC[C@H]2/C(=C/C=C3C[C@@H](O)C[C@H](O)C3)CCC[C@]12C (single isomer, unassigned) [I(i), 24-Phenyl Sulfoximine 19-Nor-Vitamin-D3] | act to inhibit the proliferation
